Experimental data reported in US20060269491A1, “UVA (> 360-400) and UVB (300-325) specific sunscreens” (priority 2000, published 2006).

Assay: UV absorbance of sunscreen compositions (FIG. 9)
Type: physicochemical
Excerpt: FIG. 9 depicts the UV absorbance of two specific suncreen compositions.
Thus, to adequately protect human skin from the UV-induced enzymes that degrade the collagen matrix, and which inhibit collagen biosynthesis, a sunscreen formulation must block both radiation of less then 325 nm and that between about 360 nm and 400 nm. In our prior application Ser. No. 09/089,914, we proposed a sunscreen comprising a UVB blocker such as PARSOL MCX and a UVA blocker such as PARSOL 1789. Other UVB blockers known in the art, and in light of the information provided herein, are also suitable. However, various UVA blockers, including PARSOL 1789 and various others such as TINOSORB brand blockers (available from Ciba, Basel, Switzerland) are relatively broadband blockers and while blocking some of the UVA radiation in the >360-400 nm range, are not optimized for that region. […] As noted above, these wavelengths are greater than the 360 nm the industry desires to block with its compounds, because it is generally believed that a broad band absorber will provide the desired blocking effects. To the contrary, we have shown that it is sufficient to block narrow bands of UV radiation, namely 295-325 nm in the UVB, more preferably 305-325 nm, and those wavelengths above 360 nm in the UVA, and that blocking these wavelengths achieves the desired prevention of UV-induced […] of MMPs in human skin.

UV absorbance (UVA1 area of 340-360 nm): appears adequate
UV absorbance (area of 390-400 nm): almost no absorbance
UV absorbance (at 370 nm): falls off
UV absorbance (to 380 nm): falls off dramatically
Structure (SMILES): COc1ccc(C(=O)CC(=O)c2ccc(C(C)(C)C)cc2)cc1 [PARSOL 1789]
